Laboratory results reported in patent US20110268800A1, “Unsaturated fatty acids as thrombin inhibitors” (LTS Lohmann Therapie-Systeme AG, priority 2005, published 2011).

Biological target: thrombin (Homo sapiens, UniProt P00734)
Experiment: thrombin inhibition test, amidolytic assay with Chromozym TH
Type: biochemical
Details: for Inhibition (%): thrombin, substrate Chromozym TH, pH 8.0, room temperature, 15 min preincubation; for thrombin-inhibiting action of fatty acids identified in the plant drugs (in words): free fatty acids separated from hexane/isopropanol (3:2) lipid extracts by preparative thin layer chromatography
Procedure: As the testing system, an amidolytic assay with Chromozym TH (tosylglycyl-prolyl-arginine-4-nitroanilide acetate) was used as a substrate for thrombin. The principle of the test system is based on the cleavage of the substrate by thrombin, and on the release of p-nitroaniline, which absorbs at a wavelength of 405 nm. The absorption increase over time was detected photometrically. The inhibition of thrombin was calculated by a comparison between the linear initial phase of the absorption increase of the test samples containing the extract, and the blank value.
For the thrombin inhibition test, the method according to Sturzebecher was employed, with the exception of the enzyme concentration (Sturzebecher, J., Vieweg, H. (1995). Structure-Activity Relationships of Inhibitors derived from 3-Amidinophenyl-alanine. J Enzyme Inhib, 9, 87-99). • Buffer: 608 mg Tris buffer and 900 mg NaCl were dissolved in 100 ml bidistilled water. The pH value of the buffer was subsequently set to 8.0, using HCl (2 mMol) (concentrations in the sample: 0.05 mol/1 Tris HCL, 0.154 mol/1 NaCl). The substance to be examined was dissolved in ethanol (5% total volume). This was followed by filling up with buffer. • Enzyme: 1 mg/ml (=50 NIH—U/ml) thrombin was dissolved in 0.9% NaCl solution (stock solution). To prepare the sample, this solution was diluted 1:100 with a solution of 0.9% NaCL and 1% bovine serum albumin. • Substrate: 6.6 mg Chromozym TH was dissolved in 10 ml bidistilled water (concentration=1 mmol/l). • Measurement sample: 200 μl buffer/substance • 25 μl substrate • 50 μl enzyme • Conditions: Room temperature • Implementation: Buffer and enzyme are added together by pipetting and incubated for 15 min. The reaction was started by adding the substrate. • For measuring the absorption, a plate reader, iEMS Reader MF from Labsystems, was used with 96-well microtitre plates. The measurements took place at a wavelength of 405 nm, every 10 seconds, 60 measurements. Prior to start of the measurements, the microtitre plate was shaken at 600 rpm. • Evaluation: The measurements were recorded by means of iEMS Accent Software, and evaluated with Microsoft Excel 97 Software. • To calculate inhibition, the slope in the linear initial phase of the absorption increase in the samples containing the substance to be examined was compared with the slope of the absorption increase in the blank sample. For evaluation, the first 5 measured values were left out of consideration since the bubbles forming on account of the mixing can lead to problems at the beginning of the reaction. The inhibition is calculated as follows:
Inhibition=100−(slopeInhibitor/slopeBlank value*100)

SMILES	Inhibition (%) (test concentration not printed)	also measured
CCCCCCCC(=O)O [Octanoic acid]	0.7%	
CC/C=C\C/C=C\C/C=C\C/C=C\C/C=C\CCCC(=O)O [Eicosapentaenoic acid, 5-cis, 8-cis, 11-cis, 14-cis, 17-cis-Eicosapentaenoic acid]	−1.0%	
CC/C=C\C/C=C\C/C=C\C/C=C\C/C=C\C/C=C\CCC(=O)O [Docosahexaenoic acid, 4-cis, 7-cis, 10-cis, 13-cis, 16-cis, 19-cis-Docosahexaenoic acid]	−2.5%	
CCCCCCCCCCCCCCCC(=O)O [Palmitic acid, Hexadecanoic acid]	1.4%	thrombin-inhibiting action of fatty acids identified in the plant drugs (in words): without effect
CCCCC/C=C\C/C=C\C/C=C\C/C=C\CCCC(=O)O [Arachidonic acid, 5-cis, 8-cis, 11-cis, 14-cis-Eicosatetraenoic acid]	75.2%	
CCCCCCCC/C=C\CCCCCCCC(=O)O [Oleic acid, 9-cis-Octadecenoic acid]	65.8%	thrombin-inhibiting action of fatty acids identified in the plant drugs (in words): identified as the thrombin-inhibiting substances; Inhibition (%) (test concentration not printed, listed as oleic acid): 66%
C=CCCCCCCCC(=O)O [9-Decenoic acid]	−3.7%	
CC/C=C\C/C=C\C/C=C\CCCCCCCC(=O)O [Linolenic acid, 9-cis, 12-cis, 15-cis-Octadecatrienoic acid]	75.5%	
CCCCCC[C@@H](O)C/C=C/CCCCCCCC(=O)O (stereo in doubt) [Ricinoleic acid, 12-Hydroxy-9-cis-octadecenoic acid]	43.9%	
CC/C=C\C/C=C\C/C=C\CCCCCCCCCC(=O)O [Eicosatrienoic acid, 11-cis, 14-cis, 17-cis-Eicosatrienoic acid]	76.0%	
CC/C=C\C/C=C\C/C=C\C/C=C\CCCCC(=O)O [Stearidonic acid, 6-cis, 9-cis, 12-cis, 15-cis-Octadecatetraenoic acid]	2.4%	
CCCCCCCC/C=C\CCCCCCCCCCCC(=O)O [Eruca acid, 13-cis-Docosaenoic acid]	7.8%	
CCCCC/C=C\C/C=C\CCCCCCCC(=O)O [Linoleic acid, 9-cis,12-cis-Octadecadienoic acid]	71.7%	thrombin-inhibiting action of fatty acids identified in the plant drugs (in words): responsible for the thrombin-inhibiting action
CCCCCCCC/C=C\CCCCCCCCCC(=O)O [Eicosenoic acid, 11-cis-Eicosenoic acid]	60.7%	thrombin-inhibiting action of fatty acids identified in the plant drugs (in words): identified as the thrombin-inhibiting substances
CCCCCCCC/C=C/CCCCCCCC(=O)O [Elaidinic acid, 9-trans-Octadecenoic acid]	7.4%	
CCCCCC/C=C\CCCCCCCCCC(=O)O [Vaccenic acid, 11-cis-Octadecenoic acid]	79.9%	Inhibition (%) (test concentration not given, listed as cis-vaccenic acid): 80%
